Measured values from publication PMC3038857, “Using Nuclear Receptor Activity to Stratify Hepatocarcinogens” (PLoS ONE, 2011).

Columns and labels:
[1] = target: T1, ESR1 (estrogen receptor 1) (Homo sapiens, UniProt P03372); assay: ATG_ERE_CIS: Factorial reporter gene assay (HepG2); type: cell-based; conditions: HepG2; scale not given, looks like -log10 of molar active concentration; 0 = no activity
T1 construct: expressed in transfected cells; host or cells: HepG2
Method in brief: (§1)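 Seven concentrations per chemical, three-fold dilutions down from the MTC, were tested in HepG2 hepatoma cells. Those cells carried a multiple reporter transcription unit library, read either as cis transcription-factor-site reporters or as a trans mammalian one-hybrid panel for nuclear receptors.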

[2] = target: T2, ESRRG (estrogen-related receptor gamma) (Homo sapiens, UniProt P62508); assay: ATG_ERRg_TRANS: Factorial reporter gene assay (HepG2); type: cell-based; set-up: scale not given here; conditions: HepG2; scale not given, looks like -log10 of molar active concentration; 0 = no activity
T2 construct: expressed in transfected cells; host or cells: HepG2
T2 sequence (P62508 1-458): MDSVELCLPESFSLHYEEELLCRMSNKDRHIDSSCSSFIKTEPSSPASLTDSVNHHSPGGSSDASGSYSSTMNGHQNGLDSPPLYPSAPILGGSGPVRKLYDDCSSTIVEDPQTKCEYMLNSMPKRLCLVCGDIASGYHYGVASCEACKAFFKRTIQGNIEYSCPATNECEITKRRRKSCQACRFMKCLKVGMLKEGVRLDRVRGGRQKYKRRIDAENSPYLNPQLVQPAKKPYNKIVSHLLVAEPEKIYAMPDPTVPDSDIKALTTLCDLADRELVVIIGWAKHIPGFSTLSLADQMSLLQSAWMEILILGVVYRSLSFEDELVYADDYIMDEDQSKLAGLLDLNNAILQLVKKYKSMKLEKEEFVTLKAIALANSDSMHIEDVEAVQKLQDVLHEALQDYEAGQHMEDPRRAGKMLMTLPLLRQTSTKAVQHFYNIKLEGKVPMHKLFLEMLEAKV
Method: (§2) A multiple reporter transcription unit (MRTU) library consisting of 48 transcription factor binding sites was transfected into the HepG2 human liver hepatoma cell line. In addition to the cis-acting reporter genes (CIS), a modification of the approach was used to generate a trans-system (TRANS) with a mammalian one-hybrid assay consisting of an additional 25 MRTU library reporting the activity of nuclear receptor super-family members. […] These assays were performed by Attagene Inc. (Morrisville NC) under contract to EPA.
(§3) In addition to the cis-acting reporter genes (CIS), a modification of the approach was used to generate a trans-system (TRANS) with a mammalian one-hybrid assay consisting of an additional 25 MRTU library reporting the activity of nuclear receptor super-family members. […] Chemicals were then tested in the CIS and TRANS assays at seven concentrations starting at the MTC and followed by three-fold serial dilutions. These assays were performed by Attagene Inc. (Morrisville NC) under contract to EPA. Detailed description of the methods, data and analysis methods for this dataset will be presented in a separate publication.

LXRa (NR1H3) = target: T3, LXRa (NR1H3) (Homo sapiens, UniProt Q13133); assay: ATG_LXRa_TRANS: Factorial reporter gene assay (HepG2); type: cell-based; conditions: HepG2; scale not given, looks like -log10 of molar active concentration; 0 = no activity
T3 construct: expressed in transfected cells; host or cells: HepG2
T3 sequence (Q13133 1-447): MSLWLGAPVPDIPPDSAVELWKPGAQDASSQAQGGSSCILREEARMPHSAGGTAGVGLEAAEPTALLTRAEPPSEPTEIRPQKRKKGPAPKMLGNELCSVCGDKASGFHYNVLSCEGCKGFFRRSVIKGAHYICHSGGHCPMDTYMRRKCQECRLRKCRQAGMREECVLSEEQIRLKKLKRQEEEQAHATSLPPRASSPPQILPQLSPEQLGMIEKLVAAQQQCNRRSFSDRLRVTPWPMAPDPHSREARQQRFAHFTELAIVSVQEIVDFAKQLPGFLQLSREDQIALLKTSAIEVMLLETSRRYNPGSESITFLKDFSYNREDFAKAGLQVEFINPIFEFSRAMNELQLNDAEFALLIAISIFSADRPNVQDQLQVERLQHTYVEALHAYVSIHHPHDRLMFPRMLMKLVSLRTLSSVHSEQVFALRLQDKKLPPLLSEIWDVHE
Method in brief: as §1

[3] = target: T4, PPARD (peroxisome proliferator-activated receptor delta) (Homo sapiens, UniProt Q03181); assay: ATG_PPARd_TRANS: Factorial reporter gene assay (HepG2); type: cell-based; set-up: scale not given here; conditions: scale not given, looks like -log10 of molar active concentration, 0 = no activity
T4 construct: expressed in transfected cells; host or cells: HepG2
T4 sequence (Q03181 1-441): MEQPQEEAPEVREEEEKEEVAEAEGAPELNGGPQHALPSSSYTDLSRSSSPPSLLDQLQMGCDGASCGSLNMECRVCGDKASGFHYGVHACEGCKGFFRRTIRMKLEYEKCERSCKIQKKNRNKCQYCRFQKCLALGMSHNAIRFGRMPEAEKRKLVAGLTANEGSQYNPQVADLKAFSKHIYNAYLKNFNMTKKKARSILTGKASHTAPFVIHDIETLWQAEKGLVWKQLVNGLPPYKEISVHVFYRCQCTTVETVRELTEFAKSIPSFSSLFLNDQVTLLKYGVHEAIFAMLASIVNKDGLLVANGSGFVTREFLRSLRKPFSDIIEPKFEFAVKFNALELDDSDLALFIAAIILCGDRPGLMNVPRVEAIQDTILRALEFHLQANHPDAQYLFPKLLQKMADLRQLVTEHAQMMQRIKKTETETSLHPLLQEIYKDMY
Method: as §2, §3

CAR (NR1I3) [4] = target: T5, CAR (NR1I3) (Homo sapiens, UniProt Q14994); assay: NVS_NR_hCAR: Human CAR CITCO (cell-free HTS); type: binding; conditions: scale not given, looks like -log10 of molar active concentration, 0 = no activity
T5 sequence (Q14994 1-352): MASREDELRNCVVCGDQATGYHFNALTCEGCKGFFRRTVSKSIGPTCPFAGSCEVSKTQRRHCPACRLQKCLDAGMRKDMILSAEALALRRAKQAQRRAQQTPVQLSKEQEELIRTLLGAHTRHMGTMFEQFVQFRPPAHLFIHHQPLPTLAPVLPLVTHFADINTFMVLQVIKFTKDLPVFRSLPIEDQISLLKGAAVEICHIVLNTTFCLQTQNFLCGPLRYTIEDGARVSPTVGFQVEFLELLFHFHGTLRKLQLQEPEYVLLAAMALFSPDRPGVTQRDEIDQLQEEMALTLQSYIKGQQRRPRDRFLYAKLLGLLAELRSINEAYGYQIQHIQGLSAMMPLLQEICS
Text: (§4) These are a collection of biochemical assays measuring binding constants and enzyme inhibition values. Chemicals were initially screened at a single concentration in duplicate wells at a concentration of 10 [drawing 63] M for cytochrome P-450 assays and 25 [drawing 64] M for all others. […] These assays were run by Caliper Life Sciences (Hanover, MD) under contract to EPA. Short assay descriptions are available at: http://www.caliperls.com/products/contract-research/in-vitro/.
(§5) Cell-free HTS Assays: A collection of biochemical assays measuring binding constants and enzyme inhibition values. […] These assays were run by Caliper Life Sciences (Hanover, MD) under contract to EPA. Short assay descriptions are available at http://www.caliperls.com/products/contract-research/in-vitro/. Values for all endpoints were imported into GeneData Screener (Basel, Switzerland) and normalised to solvent controls from the same plate as the tested compounds and expressed as percent of neutral control. Concentration-response curves were fit in GeneData Screener (Basel, Switzerland) Condeseo module using the Hill equation and AC50 values were determined. […] Detailed description of the methods, data and analysis methods for this dataset are described in a separate publication.

CAR (NR1I3) [5] = target: T5, CAR (NR1I3); assay: NVS_NR_hCAR_Agonist: Human CAR CITCO Agonist (cell-free HTS); type: biochemical; conditions: scale not given, looks like -log10 of molar active concentration, 0 = no activity
Text: as §4, §5

Mouse Liver = conditions: mouse chronic study, liver, preneoplastic lesion; coded 6 / Inf / 0, code not explained here; ref ToxRefDB; cited from earlier work

T1 sequence (P03372 whole entry): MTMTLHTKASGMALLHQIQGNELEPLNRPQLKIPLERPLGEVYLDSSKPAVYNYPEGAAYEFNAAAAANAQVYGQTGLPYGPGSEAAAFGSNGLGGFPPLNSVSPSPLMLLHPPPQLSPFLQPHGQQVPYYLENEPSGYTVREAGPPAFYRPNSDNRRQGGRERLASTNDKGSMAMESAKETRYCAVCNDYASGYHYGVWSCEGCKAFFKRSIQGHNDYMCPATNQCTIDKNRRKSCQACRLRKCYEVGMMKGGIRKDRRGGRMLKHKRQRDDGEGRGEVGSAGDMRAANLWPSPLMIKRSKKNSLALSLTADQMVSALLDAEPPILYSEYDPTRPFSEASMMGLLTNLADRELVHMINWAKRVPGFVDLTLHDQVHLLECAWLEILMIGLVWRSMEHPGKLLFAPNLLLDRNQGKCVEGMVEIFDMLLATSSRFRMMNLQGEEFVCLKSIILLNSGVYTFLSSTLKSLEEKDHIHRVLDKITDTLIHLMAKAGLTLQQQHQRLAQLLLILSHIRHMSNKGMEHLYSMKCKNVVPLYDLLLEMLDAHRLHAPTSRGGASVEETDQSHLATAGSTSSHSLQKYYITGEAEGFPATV

SMILES	ATG_ERE_CIS [1]	ATG_ERRg_TRANS [2]	ATG_LXRa_TRANS (LXRa (NR1H3))	ATG_PPARd_TRANS [3]	NVS_NR_hCAR (CAR (NR1I3) [4])	NVS_NR_hCAR_Agonist (CAR (NR1I3) [5])	CHR_Mouse_Liver_2_PreneoplasticLesion (Mouse Liver)
COC(=O)c1ccccc1CS(=O)(=O)NC(=O)Nc1nc(OC)cc(OC)n1 [r33]	0	0	0	0	0	0	–
Cc1c(COC(=O)C2C(/C=C(\Cl)C(F)(F)F)C2(C)C)cccc1-c1ccccc1 (centres unmarked) [r39]	0	–	0	0	0	0	6
CC(C)(c1ccc(O)cc1)c1ccc(O)cc1 [r40]	6.194	0	0	0	6.955	0	–
OB(O)O [r41]	0	0	0	0	0	0	–
O=C(Nc1ccccc1-c1ccc(Cl)cc1)c1cccnc1Cl [r42]	0	0	0	0	0	0	–
N#Cc1cc(Br)c(O)c(Br)c1 [r44]	0	0	0	0	0	0	6
CC(C)N1C(=O)N(c2ccccc2)CS/C1=N\C(C)(C)C [r45]	0	0	0	0	0	0	6
CCCCOCN(C(=O)CCl)c1c(CC)cccc1CC [r46]	0	0	0	0	0	0	–
C=CCOC(=O)C(C)(C)OC(=O)c1cc(-n2c(=O)cc(C(F)(F)F)n(C)c2=O)ccc1Cl [r47]	0	0	0	0	0	0	6
CCSC(=O)N(CC(C)C)CC(C)C [r49]	0	0	0	0	0	0	–
O=C1C2CC=CCC2C(=O)N1SC(Cl)(Cl)Cl (centres unmarked) [r51]	0	0	0	0	0	0	–
CNC(=O)Oc1cccc2ccccc12 [r52]	4.244	–	0	0	0	0	6
N#Cc1c(Cl)c(Cl)c(Cl)c(C#N)c1Cl [r58]	0	–	0	0	0	0	–
